Like-named read-outs stand apart in the source and are kept apart here.
Experiments:
[1] = tested on: normal human VA-2 fibroblasts; assay: Toxicity to normal human fibroblasts; format: cell-based
[2] = tested on: Human Leukemia 60 (HL60) cells; assay: Growth inhibition and kill of human leukemia 60 cells; format: cell-based
Method: The observation that compounds 2 and 6(c) inhibit tumor cell growth, but were not strongly cytotoxic to tumor cells at the concentrations tested, prompted the synthesis of diethyl esters of compounds 6(a), 6(b), and 6(c). These derivatives were then tested with human leukemia cells (HL60 cells) grown in RPMI/fetal calf serum medium at 37° C.
^c Concentration for 50% cell kill.

[3] = tested on: CN(O)C(=O)SC[C@H](NC(=O)CC[C@H](N)C(=O)O)C(=O)NCC(=O)O; assay: purified protein, by the assay type; conditions: other: as substrate, HEPES buffer (100 mM, pH 7.4), 25° C.
Method: (§1) The standard errors for Vm and Km were obtained by analysis of the initial rate data using the HYPER program of Cleland.
(§2) ^a HEPES buffer (100 mM, pH 7.4), 25° C.
(§3) ^b Listed values are relative to Vm for SD-lactoylglutathione.
(§4) ^c Inhibition constants obtained from using the enediol analogs as

glyoxalase I = biological target: T1, glyoxalase I (Saccharomyces cerevisiae, UniProt P50107); conditions: concentration of 50% inhibition of glyoxalase I; c = No inhibitory activity was detected; read-out: I50; cited from earlier work
T1 sequence (P50107 1-326): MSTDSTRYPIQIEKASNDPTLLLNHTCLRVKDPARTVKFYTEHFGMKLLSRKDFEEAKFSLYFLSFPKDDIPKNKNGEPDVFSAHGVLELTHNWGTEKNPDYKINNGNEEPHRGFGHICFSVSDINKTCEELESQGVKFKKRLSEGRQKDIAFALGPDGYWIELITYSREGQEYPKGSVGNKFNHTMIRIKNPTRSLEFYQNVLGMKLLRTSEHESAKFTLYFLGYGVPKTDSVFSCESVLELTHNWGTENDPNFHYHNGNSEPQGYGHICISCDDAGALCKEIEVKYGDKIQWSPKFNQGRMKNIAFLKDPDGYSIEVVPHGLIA

yeast Glx I [4] = biological target: T2, yeast Glx I (Saccharomyces cerevisiae, UniProt P50107); assay: Inhibition of yeast glyoxalase I; format: biochemical
T2 construct: purchased Sigma Chem. Co
T2 sequence (P50107 1-326): T1 sequence (P50107 1-326)

Renal Cancer (ACHN) = assay: NCI tumor cell growth inhibition, renal cancer ACHN
Source text: (§5) ^a Concentration for 50% cell growth inhibition versus nodrug
(§6) ^b Concentration for total cell growth inhibition versus nodrug

[5] = of substituent R; cited from earlier work
L1210 leukemia = conditions: concentration for 50% kill of the cell culture; cited from earlier work
Melanoma (UACC-62) = assay: NCI tumor cell growth inhibition, melanoma UACC-62
Source text: as §5, §6

human erythrocyte Glx I = biological target: T3, human erythrocyte Glx I (Homo sapiens, UniProt Q04760); assay: Inhibition of human erythrocyte glyoxalase I; format: biochemical
T3 construct: Human erythrocyte Glx I was purified to homogeneity from out-dated human blood; from tissue; host or cells: human erythrocytes (out-dated human blood)
T3 sequence (Q04760 2-184 limits assumed): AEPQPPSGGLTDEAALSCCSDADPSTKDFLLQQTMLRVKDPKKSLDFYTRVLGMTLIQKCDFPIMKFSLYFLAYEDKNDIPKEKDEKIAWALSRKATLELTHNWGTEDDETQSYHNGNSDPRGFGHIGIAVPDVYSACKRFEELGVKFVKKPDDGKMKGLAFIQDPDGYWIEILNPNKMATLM

yeast Glx I [6] = biological target: T2, yeast Glx I; conditions: Hamilton et al. 1992; cited from earlier work
[7] = biological target: bovine liver glyoxalase II (Bos taurus, UniProt Q3B7M2); assay: Substrate and inhibition studies with bovine liver glyoxalase II
Method: as §1, §2, §3, §4

KB cells = conditions: concentration for 50% kill of the cell culture; cited from earlier work
[8] = tested on: Non-Small Cell Lung Cancer (HOP-18); assay: NCI tumor cell growth inhibition, non-small cell lung cancer HOP-18
Source text: as §5, §6

CNS Cancer (SNB-75) = assay: NCI tumor cell growth inhibition, CNS cancer SNB-75
Source text: as §5, §6

Ovarian Cancer (SK-OV-3) = assay: NCI tumor cell growth inhibition, ovarian cancer SK-OV-3
Source text: as §5, §6

Colon Cancer (KMZOLZ) = assay: NCI tumor cell growth inhibition, colon cancer KMZOLZ
Source text: as §5, §6

[9] = Homo sapiens, 48 h, read-out: GI (concentration for 50% cell growth inhibition)
[10] = Homo sapiens, SK-OV-3, read-out: inhibition of cell growth

## N[C@@H](CCC(=O)N[C@@H](CSCc1ccc(Br)cc1)C(=O)NCC(=O)O)C(=O)O [S-p-Bromobenzyl glutathione, reference compound]
[1]; fibroblasts, text b533
  LC50: 50 µM
[2]; HL60 cells, text b533
  LC50: 50 µM

## bovine liver glyoxalase II (Bos taurus)
[3]
  Km: 478 µM

## CN(O)C(=O)SC[C@H](NC(=O)CC[C@H](N)C(=O)O)C(=O)NCC(=O)O [Compound 2, S-(N-Hydroxy N-Methyl Carbamoyl) Glutathione]
Glyoxalase I
  IC50: 9 µM
Yeast Glx I [4]
  binding energy difference versus deoxy analog 2(a): about 2.6 Kcal/mole
  binds more tightly to active site of Glx I than deoxy analog 2(a): 80 fold
  binds more tightly to yeast Glx I than S-D-lactoylglutathione: over 30 fold
Yeast Glx I [4]; read-out: Ki yeast Glx I
  Ki: 68 µM
Renal Cancer (ACHN); 48 hrs. incubation
  LC50 (concentration for 50% cell kill): > 1000 µM
  TGI (concentration for total cell growth inhibition): > 1000 µM
Renal Cancer (ACHN); [9]
  IC50: > 1000 µM
Renal Cancer (ACHN); Homo sapiens, read-out: inhibition of cell growth
  inhibition at 1000 µM: ~40%
Renal Cancer (ACHN); concentrations lower than 10^-3 M
  effect on cell growth: no significant effect
[5]
  π (Hansch hydrophobicity constant): 0.5
L1210 leukemia
  LD50 (L1210): > 0.20 mM
Melanoma (UACC-62); Homo sapiens, UACC-62, 48 h, read-out: GI (concentration for 50% cell growth inhibition)
  IC50: > 1000 µM
Melanoma (UACC-62); Homo sapiens, UACC-62, read-out: inhibition of cell growth
  inhibition at 1000 µM: 30%
Melanoma (UACC-62); UACC-62, 10^-4 or lower
  effect on cell growth: ineffective
Melanoma (UACC-62); UACC-62, 48 hrs. incubation
  LC50 (concentration for 50% cell kill): > 1000 µM
  TGI (concentration for total cell growth inhibition): > 1000 µM
Human erythrocyte Glx I; Phosphate buffer (50 mM, pH 7), 25° C., read-out: Ki Erythrocytes
  Ki: 1.95 ± 0.21 µM
Yeast Glx I [6]
  higher affinity of the enzyme versus glycyl-ethyl ester 2(Et): 10 fold
[7]
  Ki: 426 ± 77 µM
[7]; relative to Vm for S-D-lactoylglutathione, HEPES buffer (100 mM, pH 7.4), 25° C.
  Vm (rel.): (1.7 ± 0.1) × 10^-5
KB cells
  LD50 (KB): 0.11 mM
[8]; HOP-18, 48 hrs. incubation
  LC50 (concentration for 50% cell kill): > 1000 µM
  TGI (concentration for total cell growth inhibition): > 1000 µM
[8]; Homo sapiens, HOP-18, 48 h, read-out: GI (concentration for 50% cell growth inhibition)
  IC50: 630 µM
[8]; Homo sapiens, HOP-18, read-out: cell growth inhibition
  inhibition at 1000 µM: > 65%
CNS Cancer (SNB-75); CNS human cancer cells, 10^-4 M or lower
  inhibition of cell growth: less than 10%
CNS Cancer (SNB-75); Homo sapiens, SNB-75, 48 h, read-out: GI (concentration for 50% cell growth inhibition)
  IC50: 630 µM
CNS Cancer (SNB-75); Homo sapiens, SNB-75, read-out: inhibition of cell growth
  inhibition at 1000 µM: 60%
CNS Cancer (SNB-75); SNB-75, 48 hrs. incubation
  LC50 (concentration for 50% cell kill): > 1000 µM
  TGI (concentration for total cell growth inhibition): > 1000 µM
Ovarian Cancer (SK-OV-3); Homo sapiens, SK-OV-3, 48 h, read-out: GI (concentration for 50% cell growth inhibition)
  IC50: 316 µM
Ovarian Cancer (SK-OV-3); [10]
  inhibition at 100 µM: 20%
  inhibition at 1000 µM: > 90%
Ovarian Cancer (SK-OV-3); SK-OV-3, 48 hrs. incubation
  LC50 (concentration for 50% cell kill): > 1000 µM
  TGI (concentration for total cell growth inhibition): ~ 1000 μM
Colon Cancer (KMZOLZ); [9]
  IC50: > 1000 µM
Colon Cancer (KMZOLZ); KMZOL2, "At this concentration" (printed after 10^-4 and below)
  inhibition of cell growth: < 30%
Colon Cancer (KMZOLZ); KMZOL2, concentrations of 10^-4 and below
  effect on cell growth: no significant effect
Colon Cancer (KMZOLZ); KMZOLZ, 48 hrs. incubation
  LC50 (concentration for 50% cell kill): > 1000 µM
  TGI (concentration for total cell growth inhibition): > 1000 µM

## C[C@@H](O)C(=O)SC[C@H](NC(=O)CC[C@H](N)C(=O)O)C(=O)NCC(=O)O [S-D-lactoylglutathione, reference compound]
Glyoxalase I
  IC50: 77 µM
Yeast Glx I [4]
  Ki: 2230 µM
L1210 leukemia
  LD50 (L1210): 0.08 mM
KB cells
  LD50 (KB): 0.07 mM

## CCOC(=O)CNC(=O)[C@H](CSC(=O)N(O)c1ccccc1)NC(=O)CC[C@H](N)C(=O)OCC [6a(Et)2]
Human erythrocyte Glx I; Table 7, read-out: Ki (competitive inhibition constants with human erythrocyte glyoxalase I)
  Ki: > 1000 µM
[1]; VA-2 fibroblasts, 250 to 300 μM
  inhibition of cell growth: 50-80%
[2]; HL60, 250 to 300 μM
  cell killing: about 100%
[2]; HL60, 72 hr. incubation
  LC50 (concentration for 50% cell kill): 200 µM
  TGI (concentration for total cell growth inhibition): 126 µM
[2]; HL60, 72 hr. incubation, read-out: GI (concentration for 50% cell growth inhibition)
  IC50: 63 µM
[2]; HL60 cells, RPMI/fetal calf serum medium, 37° C.
  toxicity versus corresponding unethylated species: more toxic

Source: US5616563A, “Glutathione N-hydroxycarbamoyl thioesters and method of inhibiting neoplastic growth” (University of Maryland Baltimore Campus, priority 1994, dated 1997)
